# Reference: patent publication US20170348375A1, “DISLODGEMENT AND RELEASE OF HSC FROM THE BONE MARROW STEM CELL NICHE USING ALPHA9 INTEGRIN ANTAGONISTS” (COMMONWEALTH SCIENTIFIC AND INDUSTRIAL RESEARCH ORGANISATION, priority 2014, published 2017)
# pKd: −log10 of the molar value. Where two headings read alike, the source gives them in different places.
# Columns and labels:
# human integrin α4β1 = molecular target: T1, human integrin α4β1 (Homo sapiens, UniProt P05556+P13612); assay: Saturation binding to α4β1 over-expressing LN18 cells (flow cytometry); details: for pKd: α4β1 LN18 cells, read-out: Kd (dissociation constant), α4β1
# T1 construct: expressed in transfected cells; host or cells: human glioblastoma LN18 (ATCC CRL-2610), retrovirally transduced
# T1 sequence (P13612 34-1032): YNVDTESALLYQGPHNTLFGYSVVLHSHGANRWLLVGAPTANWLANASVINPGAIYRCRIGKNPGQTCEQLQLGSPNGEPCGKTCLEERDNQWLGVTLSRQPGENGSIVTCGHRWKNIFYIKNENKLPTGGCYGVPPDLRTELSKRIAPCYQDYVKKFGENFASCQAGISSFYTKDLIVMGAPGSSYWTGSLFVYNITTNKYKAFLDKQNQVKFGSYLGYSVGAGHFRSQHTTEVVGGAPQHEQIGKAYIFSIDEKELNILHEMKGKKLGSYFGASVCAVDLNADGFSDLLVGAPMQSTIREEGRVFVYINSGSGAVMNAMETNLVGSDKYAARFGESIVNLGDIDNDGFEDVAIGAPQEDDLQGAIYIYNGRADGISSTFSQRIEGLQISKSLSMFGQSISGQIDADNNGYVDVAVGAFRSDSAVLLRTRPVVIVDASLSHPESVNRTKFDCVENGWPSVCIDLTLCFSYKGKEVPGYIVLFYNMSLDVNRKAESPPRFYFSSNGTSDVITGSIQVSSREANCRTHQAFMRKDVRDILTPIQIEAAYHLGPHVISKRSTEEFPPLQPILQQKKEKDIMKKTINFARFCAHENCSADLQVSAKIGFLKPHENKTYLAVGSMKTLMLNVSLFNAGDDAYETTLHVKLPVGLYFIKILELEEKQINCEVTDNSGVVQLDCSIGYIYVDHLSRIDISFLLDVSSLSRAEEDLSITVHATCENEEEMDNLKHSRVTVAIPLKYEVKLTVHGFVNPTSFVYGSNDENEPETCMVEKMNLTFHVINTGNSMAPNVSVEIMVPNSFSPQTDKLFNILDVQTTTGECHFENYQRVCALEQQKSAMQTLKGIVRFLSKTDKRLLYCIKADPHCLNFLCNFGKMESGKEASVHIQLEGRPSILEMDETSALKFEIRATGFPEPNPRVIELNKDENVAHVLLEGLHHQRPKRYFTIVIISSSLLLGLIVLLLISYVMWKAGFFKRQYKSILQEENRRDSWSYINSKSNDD
# T1 sequence (P05556 21-798): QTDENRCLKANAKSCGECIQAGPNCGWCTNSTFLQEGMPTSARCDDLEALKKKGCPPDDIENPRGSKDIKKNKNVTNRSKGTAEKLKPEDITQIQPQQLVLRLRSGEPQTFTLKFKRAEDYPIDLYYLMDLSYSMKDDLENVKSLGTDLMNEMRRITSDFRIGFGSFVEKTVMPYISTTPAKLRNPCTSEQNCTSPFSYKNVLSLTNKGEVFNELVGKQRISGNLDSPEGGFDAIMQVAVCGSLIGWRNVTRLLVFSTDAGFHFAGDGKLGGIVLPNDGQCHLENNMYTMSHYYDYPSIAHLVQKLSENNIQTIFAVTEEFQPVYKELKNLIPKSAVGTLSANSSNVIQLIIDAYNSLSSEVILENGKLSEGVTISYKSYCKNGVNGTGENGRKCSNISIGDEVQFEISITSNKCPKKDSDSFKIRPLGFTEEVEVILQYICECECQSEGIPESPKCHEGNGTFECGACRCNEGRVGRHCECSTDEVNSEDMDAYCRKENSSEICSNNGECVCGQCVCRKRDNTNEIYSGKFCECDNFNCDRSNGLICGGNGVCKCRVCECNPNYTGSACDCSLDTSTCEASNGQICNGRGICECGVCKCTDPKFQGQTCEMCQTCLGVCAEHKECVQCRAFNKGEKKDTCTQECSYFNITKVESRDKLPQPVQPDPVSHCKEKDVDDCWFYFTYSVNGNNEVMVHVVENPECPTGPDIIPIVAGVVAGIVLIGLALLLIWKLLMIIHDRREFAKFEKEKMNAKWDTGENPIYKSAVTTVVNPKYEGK
# Experimental: Stable LN18 cells ((ATCC number: CRL-2610) over-expressing integrin α4β1 (LN18 α4β1) or α9β1 (LN18 α9β1)) were generated by retroviral transduction using the pMSCV-hITGA4-IRES-hITGB1 and pMSCV-hITGA9-IRES-hITGB1 vectors as previously described in J Grassinger, et al Blood, 2009, 114, 49-59 and were maintained in DMEM supplemented with 2 mM […] in 10% FBS. Transduced cells were selected by two rounds of FACS using 2.5 μg ml^−1 PE-Cy5-conjugated mouse-anti-human α4 antibody (BD Bioscience) or 20 μg ml^−1 of mouse-anti-human α9β1 antibody (Millipore) in PBS-2% FBS, followed by 0.5 μg ml^−1 of PE-conjugated goat-anti-mouse IgG (BD Bio-science). Silencing of α4 expression in LN18 and LN18 α9β1 cells was performed as described above using pSM2c-shITGA4 (Open Biosystems). α4-silenced LN18 cells (control cell line; LN18 SiA4) and LN18 α9β1 (LN18 α9β1SiA4) were negatively selected for α4 expression using FACS.
# The cells were incubated at 37° C. for 60 min, washed once with TBS-2% FBS, dry pelleted and resuspended in the relevant binding buffer for flow cytometric analysis. Mean channel fluorescence was plotted against concentration and fitted to a one-site saturation ligand binding curve using GraphPad Prism 6. The dissociation constant, Kd was determined from the curves.
# [1] = tested on: central and endosteal BM LSK and LSKSLAM cells; assay: In vitro R-BC154 binding to murine bone marrow cells; assay type: cell-based, mouse
# Experimental: For lineage analysis, cells were stained separately for T-cells using anti-CD3, B-cells using anti-B220, macrophages using anti-Mac-1 and granulocytes using anti-Gr-1. Alternatively, lineage analysis was also performed using a cocktail containing anti-CD3/B220 (PB conjugated) and anti-B220/Gr1/Mac-1 (AF647 conjugated), whereby B220^+ cells were identified as +/+ cells, CD^3+ cells are +/− and Gr1/Mac-1^+ cells are −/+ populations. For analysis of human WBC from cord blood MNCs or BM and PB from humanised NSG mice, cells were immunolabelled with a lineage cocktail containing anti-huCD3/CD14/CD15 (all AF488 conjugated), anti-CD14/CD15/CD19/CD20 (all AF647 conjugated), anti-huCD45-PB, anti-muCD45-BV510 and anti-huCD34-PECy7. A full list of conjugated antibodies used is detailed in Table 1 and 2.
# Populations of endosteal and central murine bone marrow cells were isolated as previously described in J. Grassinger, et al Cytokine, 2012, 58, 218-225 and D. N. Haylock et al Stem Cells, 2007, 25, 1062-1069. Briefly, one femur, tibia and iliac bone were excised and cleaned of muscle. After removing the epi- and metaphyseal regions, bones were flushed with PBS-2% FBS to obtain central bone marrow cells. Flushed long bones and epi- and metaphyseal fragments were pooled and crushed using a mortar and pestle. Bone fragments were digested with Collagenase I (3 mg/ml) and Dispase II (4 mg/ml) at 37° C. in an orbital shaker at 750 rpm. After 5 min, bone fragments were washed once with PBS and once with PBS 2% FBS to collect the endosteal bone marrow cells. Peripheral blood was collected by retro-orbital puncture and red blood cells were lysed using NH4Cl lysis buffer for 5 min at room temperature. Isolated cell populations were washed with PBS 2% FBS and then stained for flow cytometry as described in Antibody Cocktails above.
# Cells were washed with cold PBS (2% F BS) and then immunolabelled as described in “Antibody Cocktails” prior to flow cytometric analysis.
structure (smiles),measurement,setting,value
CCN(CC)c1ccc2c(-c3ccc(S(=O)(=O)NCc4cn(C5CC(C(=O)NC(Cc6ccc(OC(=O)N7CCCC7)cc6)C(=O)O)N(S(=O)(=O)c6ccccc6)C5)nn4)cc3S(=O)(=O)[O-])c3ccc(=[N+](CC)CC)cc-3oc2c1 (stereo not drawn) [R-BC154],pKd,human integrin α4β1; 1 mM Ca2+/Mg2+,7.42
same,increase in binding affinity towards α4β1 under Mn2+ activation compared to Ca2+/Mg2+,human integrin α4β1; 1 mM Mn2+ vs Ca2+/Mg2+,3.1 fold
same,pKd,human integrin α4β1; 1 mM Mn2+,7.91
same,reduction in binding affinity to α4β1 compared to compound 22,human integrin α4β1; Ca2+/Mg2+ conditions,1.9 fold
same,binding to central versus endosteal LSK and LSKSLAM,[1]; 1 mM Ca2+/Mg2+,greater binding to central LSK and LSKSLAM
same,binding to HSC and progenitors on co-treatment with EDTA,[1]; 10 mM EDTA (deactivating),completely abolished activity
same,binding to α4−/−/α9−/− LSK and LSKSLAM cells,[1]; BM cells of α4flox/flox α9flox/flox vav-cre mice,essentially absent
same,binding to lineage committed lymphoid and myeloid progeny relative to LSKSLAM and LSK,"[1]; exogenous activation, central and endosteal BM",significantly lower
same,binding to LSK cells in the absence of activating cations and EDTA,"[1]; no cations, no EDTA",binding to endosteal LSK cells was still evident but not to central LSK
